{
  "source": "patent US8119690B2",
  "about": "“Polyunsaturated fatty acid monoglycerides, derivatives, and uses thereof” (Centre de Recherche sur les Biotechnologies Marines, priority 2007, dated 2012)",
  "key": {"TNF-α": {"system": "TNF-α", "assay": "LPS-induced TNF-α release by THP-1 monocyte cells (ELISA)", "type": "cell-based, human", "conditions": "THP-1 cells, 100 ng/ml LPS, 4 hours; vehicle gives 400 pg/ml; composition 3 10 μg/ml, curcumin 5 μg/ml", "method": "Composition 3 (comprising compounds 1 (11%) and 5 (89%)) at final concentration of 10 μg/ml, curcumin (5 μg/ml) and a 1:1 mixture of composition 3 (10 μg/ml) and curcumin (5 μg/ml) in DMSO (1%) was used for the in vitro assay. Composition 3 prepared according to the same procedure as previously described in Example 2)\nThe in vitro assay allows evaluation of the potential anti-inflammatory effects of compounds on the induced-release of pro-inflammatory mediator by monocyte cells. Typical human monocyte THP-1 cells, involved in inflammatory processes, are used in this assay. Measurement of pro-inflammatory mediator TNF-α is performed by ELISA (manufactured by R&D Systems) with artificial induction of pro-inflammatory agents by LPS (E. Coli O55:B5) during 4 hours. Known anti-inflammatory agent dexametazone was used as positive control."}, "[1]": {"system": "A-549 human lung cancer cell line", "assay": "in vitro cell viability assay (SRB), A-549", "type": "cell-based", "conditions": "A549, A-549, at 294 μg/ml, 72 hours, read-out: growth inhibition", "method": "(§1) The cell viability assay is performed to measure the relative cell viability status of cancer cells upon exposure to test compounds in comparison to a positive control (etoposide) and a negative control (vehicule). Adherent cells growing in 96-well plates are exposed to test compounds for 3 days (72 hours). […] Test compounds (composition 1 comprising compounds 1, 5 and 6) as well as positive and negative controls were tested in parallel on the same culture plate. All conditions are tested in triplicate. […] Inhibition of 50% of cell growth compared to basal condition is the lower limit indicating a positive biological response (considered as a hit). After the incubation time, total protein content is quantified following staining with the anionic dye sulforhodamine B (SRB). The detection of […], is completed by a microplate reader. […] The amount of […] is directly proportional to the number of living cells in culture. […] Cells were trypsinized using 0.25% trypsine (w/v)/0.53 mM EDTA solution (Hyclone), counted and plated at densities between 1000 and 3000 cells per well in flat bottom 96-well clear plates (Becton Dickinson) in 100 μl of appropriate culture medium supplemented with fetal bovine serum (Hyclone). […] Absorbance was read at 515 nm using a 96-well plate Multiskan Spectrum […] (Thermo Electron Corporation). […]"}, "[2]": {"system": "PC-3 human prostate cancer cell line", "assay": "in vitro cell viability assay (SRB), PC-3", "type": "cell-based", "conditions": "PC-3, at 294 μg/ml, 72 hours, read-out: growth inhibition", "method": "as §1"}, "[3]": {"system": "HCT-15 human colon cancer cell line", "assay": "in vitro cell viability assay (SRB), HCT-15", "type": "cell-based", "conditions": "HCT-15, at 294 μg/ml, 72 hours, read-out: growth inhibition", "method": "as §1"}, "[4]": {"system": "BT-549 human breast cancer cell line", "assay": "in vitro cell viability assay (SRB), BT-549", "type": "cell-based", "conditions": "BT-549, at 294 μg/ml, 72 hours, read-out: growth inhibition", "method": "as §1"}, "[5]": {"conditions": "human, in vivo", "protocol": "Controlled amount of boiled pasta was eaten after the 4 h time point. An initial blood sample (400 μl) was collected using a lancet at a fingertip into heparin tubes followed by samples at 1, 2, 3, 4, 5, 6, 7 and 8 hour after ingestion. Plasma was separated and immediately analysed for fatty acid composition.\nThe relative bioavailability of fatty acids from composition 2 compared to fish oil is calculated with the formula:\nThe AUC (calculates area under the curve for concentration vs. time data) is calculated using linear trapezoidal rule. […] The relative bioavailability of compound 1 and compound 5 is calculated with the same formula:"}},
  "data": [
    {"compound": "COc1cc(/C=C/C(=O)CC(=O)/C=C/c2ccc(O)c(OC)c2)ccc1O", "note": "[curcumin]", "values": [
      {"measurement": "TNF-α measured", "setting": "TNF-α", "result": 100, "unit": "pg/mL"}
    ]},
    {"compound": "C[C@@H]1C[C@H]2[C@@H]3CCC4=CC(=O)C=C[C@]4(C)[C@@]3(F)[C@@H](O)C[C@]2(C)[C@@]1(O)C(=O)CO", "note": "[dexametazone]", "values": [
      {"measurement": "TNF-α measured", "setting": "TNF-α", "result": 125, "unit": "pg/mL"}
    ]},
    {"compound": "COc1cc([C@@H]2c3cc4c(cc3[C@@H](O[C@@H]3O[C@@H]5CO[C@@H](C)O[C@H]5[C@H](O)[C@H]3O)[C@H]3COC(=O)[C@H]23)OCO4)cc(OC)c1O", "note": "[etoposide]", "values": [
      {"measurement": "inhibition at 294 µg/mL", "setting": "[1]", "result": 100, "unit": "%"},
      {"measurement": "inhibition at 294 µg/mL", "setting": "[2]", "result": 100, "unit": "%"},
      {"measurement": "inhibition at 294 µg/mL", "setting": "[3]", "result": 100, "unit": "%"},
      {"measurement": "inhibition at 294 µg/mL", "setting": "[4]", "result": 100, "unit": "%"}
    ]},
    {"compound": "CC/C=C\\C/C=C\\C/C=C\\C/C=C\\C/C=C\\CCCCCC(=O)OCC(O)CO", "note": "(stereo not shown) [compound 1]", "values": [
      {"measurement": "relative bioavailability compared to compound 5", "setting": "[5]", "result": 2.20}
    ]}
  ]
}
